# According to US6379655B1, “Photoprotective/cosmetic compositions comprising aminoamidine sunscreens” (Societe l'Oreal S.A., priority 1999, dated 2002):
# Columns and labels:
# [1] = UV absorption (sunscreening properties) in ethanol; assay type: physicochemical
# From the text: This compound had the following sunscreening properties:
# spectral domain where ε is greater than 10,000: 297 to 377 nm.
# [2] = photostability protocol for cosmetic UV filters; assay type: physicochemical; conditions: protocol of Inter. J. Cosm. Sci., 1996, 18, 167-177
# From the text: Loss of 5% after subjecting to the photostability protocol (according to BERST G., GONZPNBACH H., CHRIST R., MARTIN R., DEFLANDRE A., MASCOTTO R. E., JOLLEY J. D. R., LOWELL W., PELZER R., STIEHM T., Inter. J. Cosm.Sci., 1996, 18, 167-177. Proposed protocol for determination of photostability Part I: cosmetic UV filters).
E1% [1],λmax [1],Loss after subjecting to the photostability protocol [2],SMILES
1010,354.2 nm,,"N/C(=N\N=C\c1ccccc1O)c1cnccn1 [Compound 52, N′-[(E)-2-hydroxyphenylmethylidene]pyrazinecarbohydrazonamide]"
832,335 nm,,"N/C(=N\N=C\c1ccoc1)c1cnccn1 [Compound 70, N′-[(E)-3-furylmethylidene]-2-pyrazinecarbohydrazonamide]"
1016,341 nm,5%,"N/C(=N\N=C\c1cccnc1)c1cnccn1 [Compound 76, N′-[(E)-3-pyridinylmethylidene]-2-pyrazinecarbohydrazonamide]"
